Experiments:
WT-ADSCs cells = test: anti-proliferation efficacy and cell cycle of CDK4/6 inhibitors against primary adipose derived stem cells; format: cell-based, mouse; details: WT-ADSCs treated 6 days, PD 0.1 μM or LEE 10 μM, vs DMSO or vehicle; for frequency of proliferating cells (S-G2-M) / frequency of quiescence cells (G1): flow cytometric cell cycle profile; for total cell numbers: initial plating 5×10^5 cells
Protocol: (a, d) representative flow cytometric cell cycle profiles of WT-ADSCs cells treated with either PD (0.1 μM) or LEE (10 μM) for 6 days. (b, e) histograms summarizing the cell cycle distribution of the cells in A and D. Data shown are mean±s.d. (n=6); *P<0.05 vs DMSO or V, t-test. (c, f) Histograms summarizing the total cell numbers in WT-ADSCs cells treated with DMSO or PD (0.1 μM) for 6 days (c), or WT-ADSCs cells treated with vehicle (0.5% methycellulose) or LEE for 6 days (F). Data shown are mean±s.d. (n=6); *P<0.05 vs DMSO or V, t-test. The initial plating cells were 5×10^5.
To accomplish this, the anti-proliferation efficacy of CDK4/6 inhibitors against primary adipose derived stem cells (ADSCs) from the stromal vascular fraction (SVF) of WT adipose tissue (WT-ADSCs) we assessed. WT-ADSCs were treated with two known commercial available CDK4/6 inhibitors PD0332991 (PD) and LEE011 (LEE), two clinically relevant small molecule inhibitors of CDK4 and CDK6 kinases (Rader, J., et al. Clin Cancer Res 19, 6173-6182, 2013); Fry, D. W., et al. Mol Cancer Ther 3, 1427-1438, 2004; Pikman, Y., et al. Clin Cancer Res 23, 1012-1024, 2017) for 6 days with commonly used relevant effective doses (Fry, D. W., et al. Mol Cancer Ther 3, 1427-1438, 2004; Pikman, Y., et al. Clin Cancer Res 23, 1012-1024, 2017).

WT-ADSCs = test: differentiation towards brown-like adipocytes in the presence of BAT inducers; format: cell-based, mouse; details: WT-ADSCs with BAT inducers; LEE011 10 μM, PD 0.1 μM; vs vehicle
Protocol: (a, d) Representative images of Oil Red O staining of differentiated ADSCs from WT and K43M mice (a, 10×) or WT-ADSCs treated with CDK4/6 inhibitor LEE011 (10 μM) and PD (0.1 μM) (a, 10×) in the presence of BAT inducers. (b, e) Representative images of Oil Red O staining of differentiated ADSCs from WT and K43M mice (b, 40×) or WT-ADSCs treated with CDK4/6 inhibitor LEE011 10 μM and PD 0.1 μM (e, 40×) in the presence of BAT inducers. (c, f) Representative images of bright field images of differentiated ADSCs from iWAT of WT and K43M mice or WT-ADSCs treated with CDK4/6 inhibitor LEE011 (10 μM) and PD (0.1 μM) (f, 40×) in the presence of BAT inducers.
(a) Relative mRNA levels of BAT markers Ucp-1, Pgc-1α and Cidea in differentiated ADSCs in the presence of BAT inducers. […] (b) lysates from cells were analyzed by immunoblotting for expression of CDK6, UCP-1, PGC-1α, and RUNX1. […]
Cellular differentiation entails the coordination of cell cycle arrest and tissue-specific gene expression. […] Accumulation of lipid-containing cells was detected by Oil red O staining as described (Hansen, J. B., et al. J Biol Chem 274, 2386-2393, 1999) (FIG. 11 a-b) and the characteristic feature of multilocular beige cells were also visualized under light microscopy (FIG. 11c). […]

Row | SMILES | frequency of proliferating cells (S-G2-M) (WT-ADSCs cells) | frequency of quiescence cells (G1) (WT-ADSCs cells) | total cell numbers (WT-ADSCs cells) | brown-like adipocyte differentiation (WT-ADSCs)
1 | CN(C)C(=O)c1cc2cnc(Nc3ccc(N4CCNCC4)cn3)nc2n1C1CCCC1 [LEE011, Ribociclib] | dramatic reduction | increased frequency | successfully reduced | can induce brown-like adipocytes in vitro
2 | CC(=O)c1c(C)c2cnc(Nc3ccc(N4CCNCC4)cn3)nc2n(C2CCCC2)c1=O [PD0332991, palbociclib] | dramatic reduction | increased frequency | successfully reduced | can induce brown-like adipocytes in vitro
